Reference: ChEMBL document CHEMBL4359843, “Linear and Rationally Designed Stapled Peptides Abrogate TLR4 Pathway and Relieve Inflammatory Symptoms in Rheumatoid Arthritis Rat Model” (J Med Chem, 2019)
Active and inactive are the calls of the source. No cut-off for these calls is given here. Where a SMILES comes first, the peptide text is derived from it. Bridges are numbered along the chain shown (N, C = ends).

How the values were obtained:
[1] = target: TLR7 and TLR8 (Homo sapiens) (UniProt Q9NYK1+Q9NR97); assay: Antagonist activity at TLR7/8 in human THP1 cells assessed as reduction in R848-induced IL6 secretion at 50 uM after 24 hrs by ELISA; assay type: cell-based
[2] = test system: RAW264.7; assay: Cytotoxicity against mouse RAW264.7 cells assessed as reduction in cell viability at 5 to 50 uM after 24 hrs by MTT assay; assay type: cell-based; settings: raw264.7, 24 h
[3] = target: T1, Toll-like receptor 4 (Mus musculus) (UniProt Q9QUK6); assay: Antagonist activity at TLR4 in mouse RAW264.7 cells assessed as reduction in LPS-induced cytosolic NO level at 50 uM by DAF-FM staining based FACS analysis; assay type: cell-based
T1 sequence (whole entry): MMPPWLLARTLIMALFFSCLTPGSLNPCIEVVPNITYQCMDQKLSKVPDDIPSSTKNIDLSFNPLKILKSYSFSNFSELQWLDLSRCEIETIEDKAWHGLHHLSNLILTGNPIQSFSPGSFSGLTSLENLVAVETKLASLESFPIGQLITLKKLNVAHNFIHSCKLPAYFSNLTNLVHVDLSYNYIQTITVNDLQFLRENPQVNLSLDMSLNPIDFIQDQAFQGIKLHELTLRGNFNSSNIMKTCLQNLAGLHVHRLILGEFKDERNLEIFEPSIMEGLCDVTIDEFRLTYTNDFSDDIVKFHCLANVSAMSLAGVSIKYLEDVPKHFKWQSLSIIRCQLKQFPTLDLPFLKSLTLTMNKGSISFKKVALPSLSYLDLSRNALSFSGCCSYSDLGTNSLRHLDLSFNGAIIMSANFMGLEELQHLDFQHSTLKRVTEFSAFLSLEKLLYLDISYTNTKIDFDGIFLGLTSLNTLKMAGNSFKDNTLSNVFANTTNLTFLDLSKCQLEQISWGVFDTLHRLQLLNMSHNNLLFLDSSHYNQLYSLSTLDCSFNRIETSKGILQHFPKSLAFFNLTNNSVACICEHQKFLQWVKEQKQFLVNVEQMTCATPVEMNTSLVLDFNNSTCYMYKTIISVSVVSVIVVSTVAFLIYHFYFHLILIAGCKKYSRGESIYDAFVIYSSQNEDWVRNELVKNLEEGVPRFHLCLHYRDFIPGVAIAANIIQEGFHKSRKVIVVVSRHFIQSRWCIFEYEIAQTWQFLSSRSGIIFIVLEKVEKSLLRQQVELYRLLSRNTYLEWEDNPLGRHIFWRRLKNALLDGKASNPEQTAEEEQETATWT

[4] = target: T2, Toll-like receptor 4 (Homo sapiens, UniProt O00206); assay: Antagonist activity at TLR4 in human THP1 cells assessed as reduction in LPS-induced ATF3 activation at 50 uM after 120 to 240 mins by Western blot analysis; assay type: cell-based
T2 sequence (O00206 whole entry): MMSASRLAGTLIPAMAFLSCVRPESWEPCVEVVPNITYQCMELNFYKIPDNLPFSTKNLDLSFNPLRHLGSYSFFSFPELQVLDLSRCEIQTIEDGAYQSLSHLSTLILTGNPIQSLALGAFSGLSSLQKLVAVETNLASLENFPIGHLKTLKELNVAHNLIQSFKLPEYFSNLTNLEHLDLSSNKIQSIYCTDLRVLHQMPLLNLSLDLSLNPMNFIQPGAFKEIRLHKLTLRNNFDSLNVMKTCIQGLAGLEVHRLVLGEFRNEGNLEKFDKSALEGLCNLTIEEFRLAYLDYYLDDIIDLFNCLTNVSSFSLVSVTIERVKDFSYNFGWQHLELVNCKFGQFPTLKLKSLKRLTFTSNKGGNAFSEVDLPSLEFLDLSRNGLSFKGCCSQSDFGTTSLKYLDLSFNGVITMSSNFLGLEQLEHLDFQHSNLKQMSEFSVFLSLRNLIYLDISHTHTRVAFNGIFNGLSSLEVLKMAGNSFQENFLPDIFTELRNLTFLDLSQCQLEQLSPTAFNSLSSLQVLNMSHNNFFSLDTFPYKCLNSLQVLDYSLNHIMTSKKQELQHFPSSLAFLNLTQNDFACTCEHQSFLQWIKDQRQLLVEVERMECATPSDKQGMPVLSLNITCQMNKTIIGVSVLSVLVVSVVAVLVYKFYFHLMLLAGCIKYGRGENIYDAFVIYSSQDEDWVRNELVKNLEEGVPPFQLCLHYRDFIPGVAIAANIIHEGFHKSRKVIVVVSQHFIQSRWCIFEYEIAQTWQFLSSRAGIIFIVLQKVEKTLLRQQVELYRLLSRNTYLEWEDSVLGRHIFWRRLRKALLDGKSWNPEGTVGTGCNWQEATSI

[5] = test system: Rattus norvegicus; assay: Antiarthritic activity in Lewis rat model of complete Freund's adjuvant-induced arthritis assessed as reduction in ankle diameter at 1 nmol/g administered intra-articularly into knee joint for 6 weeks and measured every week during compound dosing by vernier caliper analysis; assay type: functional, organism-based
[6] = test system: Rattus norvegicus; assay: Antiarthritic activity in Lewis rat model of complete Freund's adjuvant-induced arthritis assessed as appearance of rounded mature chondrocytes surrounded by GAG deposition at 1 nmol/g administered intra-articularly into knee joint and measured on third week by Safranin-O staining based histopathological analysis; assay type: functional, organism-based
[7] = test system: Rattus norvegicus; assay: Antiarthritic activity in Lewis rat model of complete Freund's adjuvant-induced arthritis assessed as reduction in TNFalpha expression in synovial tissues at 1 nmol/g administered intra-articularly into knee joint measured at 1 week by TNFalpha staining based immunohistochemical analysis; assay type: functional, organism-based
[8] = target: T2, Toll-like receptor 4; assay: Antagonist activity at TLR4 in human THP1 cells assessed as reduction in LPS-induced IRF3 phosphorylation at 50 uM after 120 to 240 mins by Western blot analysis; assay type: cell-based
[9] = target: T1, Toll-like receptor 4 (Mus musculus); assay: Antagonist activity at TLR4 in mouse RAW264.7 cells assessed as reduction in LPS-induced ATF3 activation at 80 uM after 120 to 240 mins by Western blot analysis; assay type: cell-based
[10] = target: T1, Toll-like receptor 4 (Mus musculus); assay: Antagonist activity at TLR4 in mouse RAW264.7 cells assessed as reduction in LPS-induced IFNbeta secretion after 24 hrs by ELISA; assay type: cell-based
[11] = target: T1, Toll-like receptor 4 (Mus musculus); assay: Antagonist activity at TLR4 in mouse RAW264.7 cells assessed as reduction in LPS-induced cytosolic NO level at 80 uM by DAF-FM staining based FACS analysis; assay type: cell-based
[12] = target: T3, Toll-like receptor 9 (Mus musculus) (UniProt Q9EQU3); assay: Antagonist activity at TLR9 in mouse RAW264.7 cells assessed as reduction in CpG ODN-induced TNFalpha secretion at 20 to 80 uM after 24 hrs by ELISA; assay type: cell-based
T3 sequence (whole entry): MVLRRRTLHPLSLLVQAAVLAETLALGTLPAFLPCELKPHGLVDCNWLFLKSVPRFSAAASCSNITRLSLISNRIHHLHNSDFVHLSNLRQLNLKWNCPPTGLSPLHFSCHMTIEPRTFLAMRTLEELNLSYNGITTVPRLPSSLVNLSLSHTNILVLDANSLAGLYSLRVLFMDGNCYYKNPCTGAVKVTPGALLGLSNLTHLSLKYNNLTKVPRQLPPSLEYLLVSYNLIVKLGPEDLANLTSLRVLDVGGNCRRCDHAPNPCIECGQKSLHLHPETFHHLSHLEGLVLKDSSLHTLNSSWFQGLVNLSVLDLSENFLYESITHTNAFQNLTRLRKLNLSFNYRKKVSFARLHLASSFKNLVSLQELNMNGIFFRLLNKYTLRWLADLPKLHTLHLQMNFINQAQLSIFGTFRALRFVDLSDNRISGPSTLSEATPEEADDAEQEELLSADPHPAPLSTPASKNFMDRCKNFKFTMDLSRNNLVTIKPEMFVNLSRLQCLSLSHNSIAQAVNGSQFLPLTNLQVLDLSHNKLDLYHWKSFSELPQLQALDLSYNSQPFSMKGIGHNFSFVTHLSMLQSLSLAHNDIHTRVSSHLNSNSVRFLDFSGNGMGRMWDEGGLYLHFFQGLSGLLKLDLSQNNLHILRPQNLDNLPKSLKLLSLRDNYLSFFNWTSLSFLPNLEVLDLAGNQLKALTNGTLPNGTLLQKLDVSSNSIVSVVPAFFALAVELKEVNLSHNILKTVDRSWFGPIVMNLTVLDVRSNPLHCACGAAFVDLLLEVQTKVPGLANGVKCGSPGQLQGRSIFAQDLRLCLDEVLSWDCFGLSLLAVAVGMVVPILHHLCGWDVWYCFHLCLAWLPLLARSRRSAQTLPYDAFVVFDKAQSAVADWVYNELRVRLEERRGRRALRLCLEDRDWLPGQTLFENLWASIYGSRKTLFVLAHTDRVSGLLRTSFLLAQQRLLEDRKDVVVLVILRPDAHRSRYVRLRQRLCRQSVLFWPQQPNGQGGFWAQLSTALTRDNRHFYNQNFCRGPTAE

[13] = target: T2, Toll-like receptor 4; assay: Antagonist activity at TLR4 in human PBMC cells assessed as reduction in LPS-induced IkappaBalpha degradation at 80 uM after 15 to 30 mins by Western blot analysis; assay type: cell-based
[14] = target: T2, Toll-like receptor 4; assay: Antagonist activity at TLR4 in human PBMC cells assessed as reduction in LPS-induced JNK phosphorylation at 80 uM after 15 to 30 mins by Western blot analysis; assay type: cell-based

Activity [1] | Activity [3] | Activity [4] | Activity [8] | Activity [9] | Activity [10] | Activity [11] | Activity [12] | Activity [13] | Activity [14] | Compound | Activity [2] | Activity [5] | Activity [6] | Activity [7]
Active | Active | Active | Active | – | – | – | – | – | – | CC[C@H](C)[C@@H]1NC(=O)[C@H](Cc2c[nH]c3ccccc23)NC(=O)[C@H](Cc2c[nH]c3ccccc23)NC(=O)[C@@H](NC(=O)[C@H](CO)NC(=O)[C@H](Cc2ccccc2)NC(=O)[C@@H](NC(=O)CNC(=O)[C@@H](N)CC(C)C)C(C)C)CC(=O)NCCCC[C@@H](C(=O)N[C@@H](CC(C)C)C(=O)N[C@H](C(=O)O)C(C)C)NC1=O (H-LGVFSDWWIKLV-OH; lactam 6-10) | Non-Toxic | Active | Active | Active
– | – | – | – | Active | Dose-dependent effect | Active | inactive | Active | Active | H-LGVFSSWWIKLV-OH | – | – | – | –
